{"source": "patent US11976083B2", "about": "“Inhibitors of peptidylarginine deiminases” (Gilead Sciences, Inc., priority 2020, dated 2024)", "biological_target": "T1, human PAD4 (Homo sapiens, UniProt Q9UM07)", "T1 construct": "human PAD4 (NM_012387), A2-P663, was PCR amplified; His-SUMO (N, cleaved yes); made in house; host or cells: E. coli BL21(DE3)", "T1 sequence (Q9UM07 2-663)": "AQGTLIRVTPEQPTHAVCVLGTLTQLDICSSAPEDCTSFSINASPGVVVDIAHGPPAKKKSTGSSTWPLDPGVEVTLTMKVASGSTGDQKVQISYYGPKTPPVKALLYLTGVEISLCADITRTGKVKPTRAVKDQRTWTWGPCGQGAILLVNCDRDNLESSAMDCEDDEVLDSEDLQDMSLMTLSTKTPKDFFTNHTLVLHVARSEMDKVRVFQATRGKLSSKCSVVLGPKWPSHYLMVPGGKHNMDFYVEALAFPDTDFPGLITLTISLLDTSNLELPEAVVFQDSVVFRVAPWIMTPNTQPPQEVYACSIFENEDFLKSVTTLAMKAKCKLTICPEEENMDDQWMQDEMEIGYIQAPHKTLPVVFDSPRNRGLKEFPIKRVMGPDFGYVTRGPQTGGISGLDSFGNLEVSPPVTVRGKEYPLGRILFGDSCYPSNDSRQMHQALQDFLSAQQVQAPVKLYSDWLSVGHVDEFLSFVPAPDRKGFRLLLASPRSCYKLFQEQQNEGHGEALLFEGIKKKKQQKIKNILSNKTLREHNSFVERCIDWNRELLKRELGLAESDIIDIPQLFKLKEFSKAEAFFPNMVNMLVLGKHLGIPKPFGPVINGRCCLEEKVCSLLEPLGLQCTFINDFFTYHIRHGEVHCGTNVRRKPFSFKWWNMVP", "assay": "In vitro PAD4 BAEE biochemical assay", "settings": "BAEE substrate 3 mM, 5 nM PAD4, 2 mM calcium chloride; geometric mean of multiple experiments", "in_short": "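Assay was run at 25 °C using 3 mM BAEE and 5 nM human PAD4 after a 30 min compound preincubation; ammonia produced over 2 h was quantified by OPA-derived fluorescence. Full inhibition was defined by 50 µM BB-Cl-Amidine, and IC50 came from variable-slope nonlinear regression.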", "data": [{"smiles": "COc1cc(C(=O)N2C[C@H](N)C[C@@H](F)C2)cc2nc(-c3cc4ccc5nc4n3CC(F)(F)CCC[C@@H]3C[C@H]3C(=O)N[C@@H]5C)n(C)c12", "note": "[Example 851, (2~{R},5~{R},7~{R})-14-[5-[(3~{R},5~{R})-3-amino-5-fluoro-piperidine-1-carbonyl]-7-methoxy-1-methyl-benzimidazol-2-yl]-11,11-difluoro-2-methyl-3,13,19-triazatetracyclo[11.5.2.0^ {5,7}.0^{16,20}]icosa-1(19), 14,16(20),17-tetraen-4-one]", "values": [{"measurement": "IC50", "result": 0.02, "unit": "µM"}]}, {"smiles": "COc1cc(C(=O)N2CCC[C@@H](N)[C@H]2C)cc2nc(-c3cc4ccc5nc4n3CC(F)(F)CCC[C@@H]3C[C@H]3C(=O)N[C@@H]5C)n(C)c12", "note": "[Example 852, (2~{R},5~{R},7~{R})-14-[5-[(2~{R},3~{R})-3-amino-2-methyl-piperidine-1-carbonyl]-7-methoxy-1-methyl-benzimidazol-2-yl]-11,11-difluoro-2-methyl-3,13,19-triazatetracyclo[11.5.2.0^ {5,7).0^{16,20}]icosa-1(19), 14,16(20),17-tetraen-4-one]", "values": [{"measurement": "IC50", "result": 0.016, "unit": "µM"}]}, {"smiles": "COc1cc(C(=O)N2C[C@H]3CC[C@@H]2[C@@H]3N)cc2nc(-c3cc4ccc5nc4n3CC(F)(F)CCC[C@@H]3C[C@H]3C(=O)N[C@@H]5C)n(C)c12", "note": "[Example 853, (2~{R},5~{R},7~{R})-14-[5-[(1~{R},4~{R},7~{R})-7-amino-2-azabicyclo[2.2.1]heptane-2-carbonyl]-7-methoxy-1-methyl-benzimidazol-2-yl]-11,11-difluoro-2-methyl-3,13,19-triazatetracyclo[11.5.2.0^ {5,7}.0^{16,20}]icosa-1(19), 14,16(20),17-tetraen-4-one]", "values": [{"measurement": "IC50", "result": 0.048, "unit": "µM"}]}, {"smiles": "COc1cccc2c1C(=O)N[C@H](C)c1ccc3cc(-c4nc5cc(C(=O)N6CC[C@@H](OC)[C@@H](N)C6)cc(OC)c5n4C)n(c3n1)CCCCC2", "note": "[Example 854, (2~{R})-17-[5-[(3~{S},4~{R})-3-amino-4-methoxy-piperidine-1-carbonyl]-7-methoxy-1-methyl-benzimidazol-2-yl]-6-methoxy-2-methyl-3,16,22-triazatetracyclo[14.5.2.0^ {5,10}.0^{19,23}]tricosa-1(22),5(10),6,8,17,19(23),20-heptaen-4-one]", "values": [{"measurement": "IC50", "result": 0.068, "unit": "µM"}]}, {"smiles": "COc1cc(C(=O)N2CC[C@@H](OC)[C@@H](N)C2)cc2nc(-c3cc4ccc5nc4n3CCCCCc3nccnc3C(=O)N(C)[C@@H]5C)n(C)c12", "note": "[Example 855, (2~{R})-17-[5-[(3~{S},4~{R})-3-amino-4-methoxy-piperidine-1-carbonyl]-7-methoxy-1-methyl-benzimidazol-2-yl]-2,3-dimethyl-3,6,9,16,22-pentazatetracyclo[14.5.2.0^ {5,10}.0^1923]tricosa-1(22),, 5(10),6,8,17,19(23),20-heptaen-4-one]", "values": [{"measurement": "IC50", "result": 0.065, "unit": "µM"}]}, {"smiles": "COc1cc(C(=O)N2CC[C@@H](OC)[C@@H](N)C2)cc2nc(-c3cc4ccc5nc4n3CCCC(F)(F)C[C@H]3C[C@@H]3C(=O)N[C@@H]5C)n(C)c12", "note": "[Example 856, (2~{R},5~{S},7~{R})-14-[5-[(3~{S),4~{R})-3-amino-4-methoxy-piperidine-1-carbonyl]-7-methoxy-1-methyl-benzimidazol-2-yl]-9,9-difluoro-2-methyl-3,13,19-triazatetracyclo [11.5.2.0^{5,7}.0^{16,20}] icosa-1(19),14,16(20), 17-tetraen-4-one]", "values": [{"measurement": "IC50", "result": 0.156, "unit": "µM"}]}, {"smiles": "COc1cc(C(=O)N2CC[C@@H](OC)[C@@H](N)C2)cc2nc(-c3cc4ccc5nc4n3CCCC(F)(F)C[C@@H]3C[C@H]3C(=O)N[C@@H]5C)n(C)c12", "note": "[Example 857]", "values": [{"measurement": "IC50", "result": 0.013, "unit": "µM"}]}, {"smiles": "COc1cc(C(=O)N2CC[C@@H](OC)[C@@H](N)C2)cc2nc(-c3cc4ccc5nc4n3CCCC(F)(F)C[C@@H]3C[C@@H]3C(=O)N[C@@H]5C)n(C)c12", "note": "[Example 858, (2~{R},5~{S},7~{S})-14-[5-[(3~{S},4~{R})-3-amino-4-methoxy-piperidine-1-carbonyl]-7-methoxy-1-methyl-benzimidazol-2-yl]-9,9-difluoro-2-methyl-3,13,19-triazatetracyclo [11.5.2.0^{5,7}.0^{16,20}] icosa-1(19),14,16(20), 17-tetraen-4-one]", "values": [{"measurement": "IC50", "result": 0.459, "unit": "µM"}]}, {"smiles": "COc1cc(C(=O)N2CC[C@@H](OC)[C@@H](N)C2)cc2nc(-c3cc4ccc5nc4n3CCCC(F)(F)C[C@H]3C[C@H]3C(=O)N[C@@H]5C)n(C)c12", "note": "[Example 859, (2~{R},5~{R},7~{R})-14-[5-[(3~{S},4~{R})-3-amino-4-methoxy-piperidine-1-carbonyl]-7-methoxy-1-methyl-benzimidazol-2-yl]-9,9-difluoro-2-methyl-3,13,19-triazatetracyclo [11.5.2.0^{5,7}.0^{16,20}] icosa-1(19),14,16(20),17-tetraen-4-one]", "values": [{"measurement": "IC50", "result": 0.038, "unit": "µM"}]}, {"smiles": "COc1cc(C(=O)N2CC[C@@H](OC)[C@@H](N)C2)cc2nc(-c3cc4ccc5nc4n3CCCCCCC(c3ccccn3)C(=O)N[C@@H]5C)n(C)c12", "note": "(stereo partly drawn) [Example 860, (11~{R})-17-[5-[(3~{S),4~{R})-3-amino-4-methoxy-piperidine-1-carbonyl]-7-methoxy-1-methyl-benzimidazol-2-yl]-11-methyl-8-(2-pyridyl)-1,10,19-triazatricyclo [10.5.2.0^{15,18}]nonadeca-12(19),13,15(18),16-tetraen-9-one]", "values": [{"measurement": "IC50", "result": 0.044, "unit": "µM"}]}, {"smiles": "COc1cc(C(=O)N2CC[C@@H](OC)[C@@H](N)C2)cc2nc(-c3cc4ccc5nc4n3CCCCCC[C@](C)(c3ccccn3)C(=O)N[C@@H]5C)n(C)c12", "note": "[Example 861, (8~{R},11~{R})-17-[5-[(3~ {S},4~{R})-3-amino-4-methoxy-piperidine-1-carbonyl]-7-methoxy-1-methyl-benzimidazol-2-yl]-8,11-dimethyl-8-(2-pyridyl)-1,10,19-triazatricyclo[10.5.2.0^{15,18}] nonadeca-12(19),13,15(18), 16-tetraen-9-one]", "values": [{"measurement": "IC50", "result": 0.039, "unit": "µM"}]}, {"smiles": "COc1cc(C(=O)N2CC[C@@H](OC)[C@@H](N)C2)cc2nc(-c3cc4ccc5nc4n3CCCCCC[C@@](C)(c3ccccn3)C(=O)N[C@@H]5C)n(C)c12", "note": "[Example 862, (8~{S},11~{R})-17-[5-[(3~{S}, 4~{R})-3-amino-4-methoxy-piperidine-1-carbonyl]-7-methoxy-1-methyl-benzimidazol-2-yl]-8,11-dimethyl-8-(2-pyridyl)-1,10,19-triazatricyclo[10.5.2.0^{15,18}] nonadeca-12(19), 13,15(18),16-tetraen-9-one]", "values": [{"measurement": "IC50", "result": 0.078, "unit": "µM"}]}, {"smiles": "COc1nccc2c1C(=O)N[C@H](C)c1ccc3cc(-c4nc5cc(C(=O)N6CC[C@@H](OC)[C@@H](N)C6)cc(OC)c5n4C)n(c3n1)CCCCC2", "note": "[Example 863, (2~{R})-17-[5-[(3~{S},4~{R})-3-amino-4-methoxy-piperidine-1-carbonyl]-7-methoxy-1-methyl-benzimidazol-2-yl]-6-methoxy-2-methyl-3,7,16,22-tetrazatetracyclo[14.5.2.0^ {5,10}.0^{19,23}]tricosa-1(22), 5(10),6,8,17,19(23),20-heptaen-4-one]", "values": [{"measurement": "IC50", "result": 0.069, "unit": "µM"}]}, {"smiles": "COC[C@]12C[C@H]1CCCCCn1c(-c3nc4cc(C(=O)N5CC[C@@H](OC)[C@@H](N)C5)cc(OC)c4n3C)cc3ccc(nc31)[C@@H](C)NC2=O", "note": "[Example 864, (2~{R},5~{S),7~{R})-14-[5-[(3~{S},4~{R})-3-amino-4-methoxy-piperidine-1-carbonyl]-7-methoxy-1-methyl-benzimidazol-2-yl]-5-(methoxymethyl)-2-methyl-3,13,19-triazatetracyclo [11.5.2.0^{5,7}.0^{16,20}] icosa-1(19),14,16(20), 17-tetraen-4-one]", "values": [{"measurement": "IC50", "result": 0.068, "unit": "µM"}]}, {"smiles": "COC[C@@]12C[C@@H]1CCCCCn1c(-c3nc4cc(C(=O)N5CC[C@@H](OC)[C@@H](N)C5)cc(OC)c4n3C)cc3ccc(nc31)[C@@H](C)NC2=O", "note": "[Example 865, (2~{R},5~{R},7~{S})-14-[5-[(3~{S},4~{R})-3-amino-4-methoxy-piperidine-1-carbonyl]-7-methoxy-1-methyl-benzimidazol-2-yl]-5-(methoxymethyl)-2-methyl-3,13,19-triazatetracyclo[11.5.2.0^ {5,7}.0^{16,20}]icosa-1(19), 14,16(20),17-tetraen-4-one]", "values": [{"measurement": "IC50", "result": 0.23, "unit": "µM"}]}, {"smiles": "COc1cc(C(=O)N2CC[C@@H](OC)[C@@H](N)C2)cc2nc(-c3cc4ccc5nc4n3CCCc3cccc(c3)CC(=O)N[C@@H]5C)n(C)c12", "note": "[Example 866, (13˜{R})-19-[5-[(3˜{S},4˜{R})-3-amino-4-methoxy-piperidine-1-carbonyl]-7-methoxy-1-methyl-benzimidazol-2-yl]-13-methyl-1,12,21-triazatetracyclo[12.5.2.1^{5,9}.0^{17,20}]docosa-5,7,9(22),14(21),15,17(20),18-heptaen-11-one]", "values": [{"measurement": "IC50", "result": 0.079, "unit": "µM"}]}, {"smiles": "COc1cc(C(=O)N2CC[C@@H](OC)[C@@H](N)C2)cc2nc(-c3cc4ccc5nc4n3CC(F)(F)CCC[C@@H]3C[C@H]3C(=O)N(CC(F)F)[C@@H]5C)n(C)c12", "note": "[Example 867, (2~{R},5~{R},7~{R})-14-[5-[(3~{S},4~{R})-3-amino-4-methoxy-piperidine-1-carbonyl]-7-methoxy-1-methyl-benzimidazol-2-yl]-3-(2,2-difluoroethyl)-11,11-difluoro-2-methyl-3,13,19-triazatetracyclo[11.5.2.0^ {5,7).0^{16,20}]icosa-1(19),14,16(20),17-tetraen-4-one]", "values": [{"measurement": "IC50", "result": 0.044, "unit": "µM"}]}, {"smiles": "COc1cc(C(=O)N2CC[C@@H](OC)[C@@H](N)C2)cc2nc(-c3cc4ccc5nc4n3CC(F)(F)CCC[C@@H]3C[C@H]3C(=O)N(CC3CC3)[C@@H]5C)n(C)c12", "note": "[Example 868, (2~{R},5~{R},7~{R})-14-[5-[(3~{S},4~{R})-3-amino-4-methoxy-piperidine-1-carbonyl]-7-methoxy-1-methyl-benzimidazol-2-yl]-3-(cyclopropylmethyl)-11,11-difluoro-2-methyl-3,13,19-triazatetracyclo[11.5.2.0^ {5,7}.0^{16,20}]icosa-1(19), 14,16(20),17-tetraen-4-one]", "values": [{"measurement": "IC50", "result": 0.037, "unit": "µM"}]}]}
